Assay [1] has as its system Ghrelin-induced feeding increasing mice. In words: Assessment of feeding in mice (Ghrelin-induced feeding increasing mice). The class given is in vivo. Particulars: ICR mice, compound i.p. 12.5, 25, 50 mg/kg, Ghrelin 250 nmol/kg i.v., 1, 2 and 4 hours. As for the experimental part:
Assessment of Feeding in Mice
The effects of compounds of the Examples on the feeding amount in intraperitoneally administering the compound were evaluated using Ghrelin-induced feeding increasing mice.
ICR mice (male, 7-week-old, Charles River Laboratories) were fed in 5 mice in each cage. Food (CE-2, Oriental Yeast Co., Ltd.) and sterile tap water were intaken freely.
ICR mice were intraperitoneally administered the compound (12.5, 25, 50 mg/kg) miscible in 10% polyethylene glycol #400, and immediately after that, intravenously administered Ghrelin (250 nmol/kg) dissolved in saline.
The food weight was measured 4 times in total: just before the administration of Ghrelin, and 1, 2 and 4 hours after the administration. The inhibition ratio was calculated according to the following equation and the integrated feeding amount until each measuring time point. Each treatment group consisted of 10 mice.
Inhibition ratio (%)=(B−C)/(B−A)×100
A: Feeding amount (g) in group administered with only vehicle
B: Feeding amount (g) in group administered with only Ghrelin
C: Feeding amount (g) in group administered with Ghrelin and test compound

In assay [2] the target is T1, human GHSR (growth hormone secretagogue receptor) (Homo sapiens, UniProt Q92847).
T1 construct: host or cells: CHO-K1
T1 sequence (Q92847 whole entry): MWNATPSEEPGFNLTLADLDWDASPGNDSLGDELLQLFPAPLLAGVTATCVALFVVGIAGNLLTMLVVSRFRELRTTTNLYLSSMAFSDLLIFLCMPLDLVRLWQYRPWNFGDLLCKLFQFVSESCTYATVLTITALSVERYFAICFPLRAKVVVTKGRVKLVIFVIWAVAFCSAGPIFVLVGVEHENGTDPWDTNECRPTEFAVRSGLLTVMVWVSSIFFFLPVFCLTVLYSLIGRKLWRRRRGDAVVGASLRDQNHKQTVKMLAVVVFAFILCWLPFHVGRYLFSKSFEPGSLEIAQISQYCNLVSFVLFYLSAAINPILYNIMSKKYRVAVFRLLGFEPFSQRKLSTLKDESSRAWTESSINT
Type of assay: cell-based. The conditions noted are these: 1 μM compound, 10 nM Ghrelin, human GHSR CHO-K1 cells. On the procedure:
Assessment of Ghrelin Antagonism Using Human GHSR Stably Expressing Cells
By using cells wherein human GHSR (growth hormone secretagogue receptor) is stably expressed, the effects of compounds of the Examples on elevation of cellular calcium ion concentrations were evaluated when endogenous ligand Ghrelin was added to the cells.
Human GHSR stably expressing CHO-K1 cells (EUROSCREEN) were seeded on 96-well assay plate (Black plate, Clear Bottom (Corning)) in 2×10^4 cells/100 μl/well, and incubated in cell culture device for 1 day at 37° C. under 5% CO2. […]
Ghrelin was combined with an equal amount of the test compound which was prepared with Hanks/Hepes (pH7.4) in a concentration of 10-times of the final concentration, and the mixture was added to the cells in 50 μl/well. Immediately after that, excitation wavelength in 488 nm was measured by FLIPR (Molecular Devices) 80 times at 1 second interval. Ghrelin antagonistic ratio (%) of the compound in the concentration of 1 μM was calculated according to the following equation wherein the values of fluorescence intensity means those obtained by deducting the minimum value from the maximum value. […]
A: Fluorescence intensity in case of adding 1 μM of the compound and 10 nM of Ghrelin
B: Fluorescence intensity in case of no addition of the compound and Ghrelin
C: Fluorescence intensity in case of adding only 10 nM of Ghrelin

The structures appear in SMILES notation.

As for `CCN(CC)[C@H]1C[C@H](CN2C(=O)C(O)(c3ccc(Cl)cc3Cl)c3c2cc(C(N)=O)cc3C(F)(F)F)C1.Cl` (stereo partly drawn) [Example 1, 3-(2,4-dichlorophenyl)-1-[trans-3-(diethylamino)-cyclobutylmethyl]-4-trifluoromethyl-3-hydroxy-2-oxoindoline-6-carboxamide Hydrochloride], the “Inhibition ratio of feeding amount, maximum” value in assay [1] came out at 110%. Besides, the Ghrelin antagonistic ratio in assay [2] is 82%.

Take `CCN(CC)[C@H]1C[C@H](CN2C(=O)C(O)(c3ccc(Cl)cc3Cl)c3c2cc(-c2ncco2)cc3C(F)(F)F)C1` (stereo partly drawn) [Example 14, 3-(2,4-dichlorophenyl)-1-[trans-3-(diethylamino)-cyclobutylmethyl]-4-trifluoromethyl-3-hydroxy-6-(2-oxazolyl)-1,3-dihydro-2H-indol-2-one]: the Ghrelin antagonistic ratio in assay [2] was 74%.
